Experimental data: patent US4902791A, “Nitrosourea derivatives, process for their preparation and medicaments containing them” (Sanofi S.A., priority 1983, dated 1990)

Experiments:
Format in all cases: in vivo, mouse
L1210 U.S.A. = test: antitumor activity on leukemia L1210 U.S.A., products of examples 33-39, I.P.
Method: The experiments were always carried out on female mice which were specific pathogen-free (S. P. F.),
either of the line DBA/2JIco
or of the line B6 D2 F1/JIco (first generation hybrids between the lines C57BL/6 and DBA/2).
On the day of the graft (by convention day 0=D0) an inoculum of 1×10^5 tumor cells in a volume of 0.2 ml is administered to each mouse by the intraperitoneal route (I.P.).
This inoculum is prepared by diluting ascites fluid taken from the peritoneum of a donor female mouse in NCTC 109 medium (Eurobio Laboratories, Paris, France), counting of the cells in a MALASSEZ cell under a microscope and adjustment of the concentration to 5×10^5cells […] by means of the same medium.
The tumor line is an American strain of the line L1210.
After the tumor graft, the mice are distributed at random in cages of 5 animals. Subsequently, these cages containing 5 mice are themselves distributed at random into a control group (control) and groups treated with the I.C. products.
(§1) The doses of the products of the invention used in the different experiments are expressed in milligrams per kilogram of body weight.
(§2) The products to be injected were dissolved in isotonic sodium chloride solution.
2 protocols for treatment were used in the different experiments:
either a single injection on D1, by the intraperitoneal (I.P.) or intravenous (I.V.) route,
(§3) or 3 I.P. injections on D1, D5, D9.
(§4) In each experiment the animals of the control group received 1 or more injections, depending on the experimental protocol used, by the same route (I.P. or I.V.) of the same volume (0.2 ml/20 g) of the vehicle without the active principle (isotonic sodium chloride solution).
(§5) the number and percentage of the total of the mice surviving to D60,
(§6) the T/C×100 for the treated groups.
(§7) T representing the mean survival time of the mice in the treated group,
(§8) C representing the mean survival time of the mice in the control group (controls).

[1] = toxicological results, single I.P. dose, DL0 and DL50; details: mice
From the text: DL0, DL50, single I.P. dose administered to the aforementioned strains of mice.

melanoma B16 = test: antitumor activity on melanoma B16, products of examples 33-39, I.P.; details: B6 D2 F1, I.P. D1, D5, D9, 3×10 mg/kg
Method: The experiments are always carried out on SPF female mice, B6 D2 F1/JIco (first generation hybrids between the lines C57BL/6 and DBA/2).
On the day of the graft (day 0), an inoculum of 2×10^6 tumor cells in a volume of 0.5 ml is administered to each mouse by the intraperitoneal route (I.P.). This inoculum is prepared from a sub-cutaneous tumor excised from a donor female mouse. After excision the tumor is fragmented by means of a pair of scissors in the NCTC 109 medium. After filtration through sterile gauze in order to remove large cellular fragments, the homogeneous cell suspension obtained is counted by means of a MALASSEZ cell and diluted to the desired concentration (4×10^6tumor cells per ml) by dilution with the NCTC 109 medium.
This was performed in the manner described for the leukemia L1210 (see above).
as §1, §2, §3, §4, §5, §6, §7, §8

[2] = B6 D2 F1, I.P. D1, D5, D9, 3×1.25 mg/kg
[3] = B6 D2 F1, I.P. D1, D5, D9, 3×5 mg/kg
[4] = B6 D2 F1, I.P. D1, D5, D9, 3×10 mg/kg
[5] = DBA2, I.P. D1, D5, D9, 3×5 mg/kg

## CO[C@@H]1O[C@H](C)C[C@H](NC(=O)N(CCCl)N=O)[C@H]1O [IC. 85-1591, methyl 3-[3-(2-chloroethyl) 3-nitrosoureido] 3,4,6-trideoxyβ-D-xylo-hexopyranoside]
L1210 U.S.A.; [2]
  Number of survivors: 0/10
  T/C: 116
L1210 U.S.A.; [3]
  Number of survivors: 2/10
  T/C: 217
L1210 U.S.A.; [4]
  Number of survivors on D60: 8/10
  T/C: 600
L1210 U.S.A.; DBA2, I.P. D1, 1×20 mg/kg
  Number of survivors on D60: 7/10
  T/C: > 600
L1210 U.S.A.; [5]
  Number of survivors on D60: 6/10
  T/C: > 600
[1]
  DL0: ≥ 20 mg/kg
[1]; mouse, in vivo, ip
  LD50: ~40 mg/kg
Melanoma B16
  Number of survivors: 3/10
  T/C: 194
